According to article PMC5487681, “Identification of Antifungal H^+-ATPase Inhibitors with Effect on Plasma Membrane Potential” (Antimicrobial Agents and Chemotherapy, 2017):
In brackets after ≈: the same amount, converted by molar mass. Read-outs that look alike come from different tables or passages of the source.

Tests used:
S. cerevisiae = experiment: Medium acidification assay, S. cerevisiae; format: cell-based, Saccharomyces cerevisiae; details: Saccharomyces cerevisiae, 0.2 h; 50% inhibition of medium acidification, 12 min, n = 2 to 3
Procedure: (§1) Frozen stocks of C. albicans and S. cerevisiae were transferred to YPD agar plates and incubated overnight at 34°C. On the next day, the cells were suspended and washed twice in 50 mM KCl, pH 6.7, after pelleting of the cells by centrifugation at 3,000 × g for 5 min. The cells were then starved overnight at 4°C in the KCl solution. […] The pH drop was then monitored by determination of the fluorescent signal with excitation at 485 nm and emission at 538 nm on a Fluoroskan Ascent plate reader (Thermo Fisher Scientific) for 12 min. The rate of medium acidification was calculated on the basis of the slope of the drop in fluorescence.

C. albicans = experiment: Medium acidification assay, C. albicans; format: cell-based, Candida albicans; details: Candida albicans, 0.2 h; 50% inhibition of medium acidification, 12 min, n = 2 to 3; read-out: IC50 for acidification, C. albicans
Procedure: as §1

S. cerevisiae cells [1] = experiment: Intracellular ATP (iATP), S. cerevisiae; format: cell-based, Saccharomyces cerevisiae; details: S. cerevisiae and C. albicans (Fig. 5A, B); compared to compounds 14, 19 and BM2
Procedure: S. cerevisiae and C. albicans cells were grown and washed as described above for the membrane potential and integrity assay and resuspended in SG medium (0.7% yeast nitrogen base without amino acids [BD], 50 mM succinic acid adjusted to pH 7 with Trizma base) to OD600 of 0.2 and 0.1, respectively. One hundred microliters of an S. cerevisiae or C. albicans cell suspension and 1 μl compound in DMSO were incubated for 30 min. Twenty-five microliters of the suspension was then transferred to a black 96-well plate containing 25 μl BacTiter-Glo reagent (Promega, Madison, WI) and incubated for 15 min in the dark. The luminescence was read on SpectraMax X5 (Molecular Devices, Sunnyvale, CA) plate reader with a 10 s of shaking and a 0.5 s integration time. Standard curves at 10, 100, and 1,000 nM ATP were performed with every experiment.

Candida spp. = experiment: Fungal growth inhibition, Candida spp. (text summary of Table 1); format: cell-based; details: 38 μM highest concentration tested for compounds 4 and 8, read-out: MIC for several of the Candida spp. tested
Procedure: (§2) The following fungal isolates were used: Saccharomyces cerevisiae ATCC 9763, Candida albicans SC5314, Candida parapsilosis ATCC 22019, Candida tropicalis Ct016, Candida glabrata ATCC 90030, Aspergillus fumigatus ATCC 13073, and Aspergillus flavus ATCC MYA-1005. Frozen stocks of yeast isolates in glycerol (final concentration, 20%) were prepared by growing the cells to log phase in YPD medium at 30°C and 150 rpm. Frozen stocks of mold spores were prepared by harvesting spores from 7-day-old potato glucose agar plates in phosphate-buffered saline, 0.1% Tween 80 and aliquoting these spores in the presence of glycerol (final concentration, 20%). The cells were stored at −80°C. The cells or spores were thawed and diluted to a final concentration of 0.5 × 10^5 to 2.5 × 10^5 CFU/ml in sterile Milli-Q H2O. […] The plate was incubated for 20 to 24 h at 34°C (72 h for molds), and the OD490 was measured on a Victor X5 (PerkinElmer) plate reader. Mold growth assay plates were also visually inspected. The MIC was defined as the lowest concentration inhibiting the visual growth of the microorganism. Standard errors were typically below 5%.

S. cerevisiae Pma1 = S. cerevisiae Pma1 (Saccharomyces cerevisiae, UniProt P05030); experiment: ATP hydrolysis assay, S. cerevisiae plasma membranes containing Pma1; format: biochemical; set-up: containing the full-length cDNA of the S. cerevisiae plasma membrane H^+-ATPase isoform PMA1; made in house; host or cells: S. cerevisiae RS72 (PMA1 cDNA under PMA1 promoter); also wild-type S. cerevisiae ATCC 9763
Procedure: Plasma membranes containing Pma1 were isolated from S. cerevisiae RS72 cells containing the full-length cDNA of the S. cerevisiae plasma membrane H^+-ATPase isoform PMA1 under the control of the PMA1 promoter, as described in reference.
A 100-ml overnight culture in YPD medium [10 g/liter yeast extract (BD, Sparks, MD), 20 g/liter Bacto peptone (BD), 20 g/liter D-(+)-glucose] was transferred to 1 liter YPD medium and grown at room temperature and 150 rpm for 18 h for wild-type S. cerevisiae (ATCC 9763) and 7 h for C. albicans. The cells were harvested and washed in Milli-Q H2O by centrifugation at 3,360 × g. The cells were glucose activated by the addition of 10% D-(+)-glucose for 10 min while shaking. The cells were then centrifuged at 3,360 × g for 3 min and frozen. Cells (60 to 80 g, wet weight) were then disrupted by bead beating (BioSpec, Bartlesville, OK) and processed as described in reference to prepare the plasma membranes. […] All batches were validated by ATPase hydrolysis activity, pH optimum, and orthovanadate sensitivity.
The protein activity levels were determined by measuring the amount of free phosphate produced from the ATP hydrolysis reaction. The assay was performed as described in reference. Each well contained ATPase enzyme, 2 μl of inhibitor (usually in the range of 333 to 0.01 μM) dissolved in dimethyl sulfoxide (DMSO) (Duchefa Biochemie, Haarlem, The Netherlands), and an assay buffer dependent on the enzyme for a final volume of 60 μl. Possible compound precipitation in the assay buffer was monitored using a Nephelostar plate reader measuring turbidity, and the information was taken into account in the IC50 determination. Pma1 assay buffer consisted of 20 mM 3-(N-morpholino)propanesulfonic acid (MOPS)–NaOH, pH 6.5 or 7.0, 8 mM MgSO4, 50 mM KNO3 (a vacuolar ATPase inhibitor), 25 mM sodium azide (a mitochondrial ATPase inhibitor), and 250 μM sodium molybdate (an acid phosphatase inhibitor). SERCA buffer consisted of 9 mM MOPS-NaOH, pH 7, 2.7 mM MgCl2, 90 μM CaCl2, and 72 mM KCl. Na^+,K^+-ATPase buffer consisted of 30 mM MOPS-NaOH, pH 7, 40 mM NaCl, 4 mM MgCl2, and 20 mM KCl. The concentration of protein was adjusted to obtain a signal of the optical density at 860 nm (OD860) of between 0.5 and 1.0 in the untreated samples (for all Pma1 batches, ∼1 to 2 μg/well; for SERCA and Na^+,K^+-ATPase, ∼0.1 to 0.2 μg/well). […]

Candida albicans SC5314 = experiment: microbe, parasite or virus in culture; details: Candida albicans, SC5314, pH 7, read-out: MIC C. albicans
Procedure: as §2, with “microorganism.” for “microorganism. Standard errors were typically below 5%.”

Na^+,K^+-ATPase = molecular target: T1, Na^+,K^+-ATPase (Sus scrofa, UniProt P05024); experiment: ATP hydrolysis assay, Na+,K+-ATPase; format: biochemical, porcine; details: Table 1, read-out: IC50 Na^+,K^+-ATPase
T1 construct: from tissue; host or cells: porcine kidney (gift of Natalya Fedosova, Aarhus University)
Procedure: (§3) Rabbit sarcoplasmic reticulum membranes containing sarcoplasmic endoplasmic reticulum Ca^2+-ATPase (SERCA) were kindly provided by Claus E. Olesen and Jesper V. Møller, Aarhus University, and prepared as described in reference. Porcine kidney Na^+,K^+-ATPase was kindly provided by Natalya Fedosova, Aarhus University, and prepared as described in reference.
(§4) The protein activity levels were determined by measuring the amount of free phosphate produced from the ATP hydrolysis reaction. The assay was performed as described in reference. Each well contained ATPase enzyme, 2 μl of inhibitor (usually in the range of 333 to 0.01 μM) dissolved in dimethyl sulfoxide (DMSO) (Duchefa Biochemie, Haarlem, The Netherlands), and an assay buffer dependent on the enzyme for a final volume of 60 μl. Possible compound precipitation in the assay buffer was monitored using a Nephelostar plate reader measuring turbidity, and the information was taken into account in the IC50 determination. Pma1 assay buffer consisted of 20 mM 3-(N-morpholino)propanesulfonic acid (MOPS)–NaOH, pH 6.5 or 7.0, 8 mM MgSO4, 50 mM KNO3 (a vacuolar ATPase inhibitor), 25 mM sodium azide (a mitochondrial ATPase inhibitor), and 250 μM sodium molybdate (an acid phosphatase inhibitor). SERCA buffer consisted of 9 mM MOPS-NaOH, pH 7, 2.7 mM MgCl2, 90 μM CaCl2, and 72 mM KCl. Na^+,K^+-ATPase buffer consisted of 30 mM MOPS-NaOH, pH 7, 40 mM NaCl, 4 mM MgCl2, and 20 mM KCl. The concentration of protein was adjusted to obtain a signal of the optical density at 860 nm (OD860) of between 0.5 and 1.0 in the untreated samples (for all Pma1 batches, ∼1 to 2 μg/well; for SERCA and Na^+,K^+-ATPase, ∼0.1 to 0.2 μg/well).

Ca^2+-ATPase (SERCA1a) [2] = molecular target: T2, Ca^2+-ATPase (SERCA1a) (Oryctolagus cuniculus, UniProt P04191); experiment: ATP hydrolysis assay, SERCA; format: biochemical, rabbit
Procedure: as §3, §4

[3] = Compound precipitation in the fungal growth medium; format: physicochemical; details: fungal growth medium (RPMI), footnotes of Table 1
Procedure: as §2

Ca^2+-ATPase (SERCA1a) [4] = molecular target: T2, Ca^2+-ATPase (SERCA1a); experiment: ATP hydrolysis assay, SERCA; format: biochemical, rabbit; details: Table 1; ATP hydrolysis at pH 7.4 (compounds marked b)
[5] = test system: Candida glabrata ATCC 90030; experiment: microbe, parasite or virus in culture; details: Nakaseomyces glabratus, ATCC90030, pH 7, read-out: MIC C. glabrata
Procedure: as §2, with “microorganism.” for “microorganism. Standard errors were typically below 5%.”

[6] = test system: Aspergillus fumigatus ATCC 13073; experiment: microbe, parasite or virus in culture; details: Aspergillus fumigatus, ATCC13073, 72 h, pH 7, read-out: MIC A. fumigatus
Procedure: as §2, with “microorganism.” for “microorganism. Standard errors were typically below 5%.”

Candida tropicalis Ct016 = experiment: microbe, parasite or virus in culture; details: Candida tropicalis, CT016, pH 7, read-out: MIC C. tropicalis
Procedure: as §2, with “microorganism.” for “microorganism. Standard errors were typically below 5%.”

[7] = test system: Candida parapsilosis ATCC 22019; experiment: microbe, parasite or virus in culture; details: Lodderomyces parapsilosis, ATCC22019, pH 7, read-out: MIC C. parapsilosis
Procedure: as §2, with “microorganism.” for “microorganism. Standard errors were typically below 5%.”

[8] = test system: Saccharomyces cerevisiae ATCC 9763; details: pH 3; cited from earlier work
S. cerevisiae cells [9] = test system: S. cerevisiae cells; set-up: method as in PMID 19413991; details: cited from earlier work
[10] = Table 1, ATP hydrolysis at pH 7, 2 to 3 experiments, read-out: IC50 Pma1

Sequence of S. cerevisiae Pma1 (P05030 whole entry, canonical isoform): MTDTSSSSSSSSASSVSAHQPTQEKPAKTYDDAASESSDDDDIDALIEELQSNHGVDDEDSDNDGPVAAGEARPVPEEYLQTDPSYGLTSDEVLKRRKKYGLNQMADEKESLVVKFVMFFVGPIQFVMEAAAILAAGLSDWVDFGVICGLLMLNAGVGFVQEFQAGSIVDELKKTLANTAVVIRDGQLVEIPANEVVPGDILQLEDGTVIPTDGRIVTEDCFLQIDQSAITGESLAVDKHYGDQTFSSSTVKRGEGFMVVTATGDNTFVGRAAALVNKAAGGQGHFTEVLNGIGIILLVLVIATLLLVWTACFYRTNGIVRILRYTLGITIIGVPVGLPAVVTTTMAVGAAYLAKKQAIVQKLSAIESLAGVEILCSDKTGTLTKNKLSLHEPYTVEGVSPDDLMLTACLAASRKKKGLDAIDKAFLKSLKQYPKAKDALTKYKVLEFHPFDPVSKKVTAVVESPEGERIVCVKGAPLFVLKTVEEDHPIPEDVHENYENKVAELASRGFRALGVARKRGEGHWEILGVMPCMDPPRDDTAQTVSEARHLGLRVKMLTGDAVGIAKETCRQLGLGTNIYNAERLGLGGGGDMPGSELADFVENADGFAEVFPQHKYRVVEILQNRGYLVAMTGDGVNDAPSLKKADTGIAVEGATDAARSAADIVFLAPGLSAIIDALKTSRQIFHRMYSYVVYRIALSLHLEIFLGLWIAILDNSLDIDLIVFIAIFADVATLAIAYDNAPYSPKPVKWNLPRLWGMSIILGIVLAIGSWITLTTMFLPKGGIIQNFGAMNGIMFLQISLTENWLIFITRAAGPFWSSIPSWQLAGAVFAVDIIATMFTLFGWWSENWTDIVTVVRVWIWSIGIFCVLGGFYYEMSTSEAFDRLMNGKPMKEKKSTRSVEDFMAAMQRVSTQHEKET
T2 sequence (P04191 1-994 isoform P04191-2): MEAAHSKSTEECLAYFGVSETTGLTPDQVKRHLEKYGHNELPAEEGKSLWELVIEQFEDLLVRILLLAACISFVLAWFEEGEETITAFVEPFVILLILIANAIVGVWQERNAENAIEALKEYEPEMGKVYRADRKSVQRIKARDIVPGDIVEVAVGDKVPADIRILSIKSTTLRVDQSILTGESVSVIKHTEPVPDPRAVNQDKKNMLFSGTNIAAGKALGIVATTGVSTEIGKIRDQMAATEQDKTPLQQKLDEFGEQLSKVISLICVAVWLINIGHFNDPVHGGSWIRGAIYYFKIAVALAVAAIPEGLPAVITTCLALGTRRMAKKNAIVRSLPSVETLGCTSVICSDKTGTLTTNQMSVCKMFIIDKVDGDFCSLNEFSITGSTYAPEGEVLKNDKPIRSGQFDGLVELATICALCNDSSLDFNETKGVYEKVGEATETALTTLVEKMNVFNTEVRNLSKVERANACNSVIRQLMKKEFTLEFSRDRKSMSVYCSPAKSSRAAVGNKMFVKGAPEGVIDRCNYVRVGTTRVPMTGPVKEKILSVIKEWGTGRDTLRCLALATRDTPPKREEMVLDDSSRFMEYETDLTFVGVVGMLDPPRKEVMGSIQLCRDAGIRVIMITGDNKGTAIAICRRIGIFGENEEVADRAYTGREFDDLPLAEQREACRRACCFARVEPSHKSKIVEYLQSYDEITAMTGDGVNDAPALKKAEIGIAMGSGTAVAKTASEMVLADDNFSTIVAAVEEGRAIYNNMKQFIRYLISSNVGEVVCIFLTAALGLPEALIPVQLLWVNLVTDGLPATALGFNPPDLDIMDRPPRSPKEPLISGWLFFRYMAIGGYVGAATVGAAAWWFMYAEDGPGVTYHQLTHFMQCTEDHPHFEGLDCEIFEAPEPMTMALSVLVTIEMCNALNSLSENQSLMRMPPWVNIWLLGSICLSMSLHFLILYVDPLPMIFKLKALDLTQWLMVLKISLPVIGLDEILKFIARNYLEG

SMILES: C[C@@H]1[C@H](O)[C@@H](C)/C=C/C=C/C=C/C=C/C=C/C=C/C=C/[C@H](O[C@@H]2O[C@H](C)[C@@H](O)[C@H](N)[C@@H]2O)C[C@@H]2O[C@](O)(C[C@@H](O)C[C@@H](O)[C@H](O)CC[C@@H](O)C[C@@H](O)CC(=O)O[C@H]1C)C[C@H](O)[C@H]2C(=O)O [AMB, amphotericin B, reference compound]
- IC50 (S. cerevisiae): > 75 µM
- IC50 (C. albicans): > 75 µM

SMILES: N#CC(C#N)=NNc1cccc(Cl)c1 [CCCP, carbonyl cyanide m-chlorophenylhydrazone, reference compound]
- Effects on iATP levels, in words (S. cerevisiae cells [1]): minimal effects

SMILES: O=C1[C@@H]2C(c3ccc(Br)cc3)=NN(c3ccccc3)[C@@H]2C(=O)N1c1ccccc1F [Compound 2]
- MIC (Candida spp.): > 150 µM
- IC50 (S. cerevisiae Pma1; [10]): 2.1 ± 1.3 µM
- MIC (Candida albicans SC5314): > 150 µM
- IC50 (Na^+,K^+-ATPase; ATP hydrolysis at pH 7): > 105 µM
- IC50 (Ca^2+-ATPase (SERCA1a) [2]): > 105 µM
- Compound precipitation observed in the growth medium at concentrations down to [3]: d Compound precipitation was observed in the growth medium at concentrations down to 48 μM.

SMILES: O=C1C=CC(=O)N1c1cccc2ccccc12 [Compound 10]
- IC50 (S. cerevisiae Pma1; IC50 Pma1, Table 1, ATP hydrolysis at pH 6.5 (compounds marked b), 2 to 3 experiments): 9.4 ± 1.7 µM
- IC50 (S. cerevisiae Pma1; IC50 for Pma1, ATP hydrolysis, S. cerevisiae Pma1): < 25 µM
- IC50 (Ca^2+-ATPase (SERCA1a) [4]): 3.4 ± 1.8 µM
- MIC (Candida albicans SC5314): 88 µM (≈ 19.6 µg/mL)
- MIC [5]: 12 µM (≈ 2.68 µg/mL)
- MIC [6]: 99 µM (≈ 22.1 µg/mL)
- MIC (Candida tropicalis Ct016): 15 µM (≈ 3.35 µg/mL)
- MIC [7]: 116 µM (≈ 25.9 µg/mL)
- IC50 (Na^+,K^+-ATPase; ATP hydrolysis at pH 7.4 (compounds marked b)): > 105 µM

SMILES: CN1CCc2c(sc3c2C(=O)NC(c2ccc(-c4cccc(Cl)c4)o2)N3)C1 (centres unmarked) [Compound 13]
- IC50 (S. cerevisiae Pma1; ATP hydrolysis, S. cerevisiae Pma1, read-out: IC50 for Pma1): < 25 µM
- IC50 (S. cerevisiae Pma1; [10]): 22.6 ± 12.4 µM
- MIC (Candida albicans SC5314): 23 µM (≈ 9.2 µg/mL)
- MIC [5]: 31 µM (≈ 12.4 µg/mL)
- MIC (Candida tropicalis Ct016): > 150 µM
- MIC [7]: 47 µM (≈ 18.8 µg/mL)
- IC50 (Na^+,K^+-ATPase; ATP hydrolysis at pH 7): 30.6 ± 11.1 µM
- IC50 (Ca^2+-ATPase (SERCA1a) [2]): 22 ± 3 µM

SMILES: CC[C@H]1/C=C/C=C/C[C@@H](C)[C@H](O)[C@@](C)(O)C(=O)[C@@H](C)[C@H](O)[C@@H](C)C(=O)[C@@H](C)[C@H](O)[C@@H](C)/C=C/C(=O)O[C@@H]2[C@H](C)[C@H](CC1)O[C@]1(CC[C@H](C)[C@H](C[C@@H](C)O)O1)[C@H]2C [oligomycin, reference compound]
- Effects on iATP levels, in words (S. cerevisiae cells [1]): minimal effects

SMILES: COc1ccc2[nH]c([S+]([O-])Cc3ncc(C)c(OC)c3C)nc2c1 (centres unmarked) [omeprazole]
- Concentration required for full growth inhibition of Saccharomyces cerevisiae [8]: 430 µM
- Increase in iATP levels, S. cerevisiae (S. cerevisiae cells [9]): 36%
